Values quoted from earlier work as cited in patent US9301957B2, “Immediate release 4-methyl-3-4[[4-(3-pyridinyl)-2-pyrimidinyl]amino]-N-[5-(4-methyl-1H-imidazol-1-YL)-3-(trifluoromethyl)phenyl] benzamide formulation” (Novartis AG, priority 2011, dated 2016).

Tests used:
[1] = unit dosage given shortly after food, compared to a fasted state
[2] = nilotinib and its salts

systemic exposure, as reflected by AUC and Cmax [1]: increases markedly | water solubility [2]: poorly water soluble
Compound: Cc1cn(-c2cc(NC(=O)c3ccc(C)c(Nc4nccc(-c5cccnc5)n4)c3)cc(C(F)(F)F)c2)cn1 [nilotinib, 4-Methyl-3-[[4-(3-pyridinyl)-2-pyrimidinyl]amino]-N-[5-(4-methyl-1H-imidazol-1-yl)-3-(trifluoromethyl)phenyl]benzamide]
